In US7145037B2, “Adamantane derivatives with neuroprotective, antidepressant and anti-ischaemic activities, and process for preparing them” (Rotta Research Laboraturium S.p.A., priority 2003, dated 2006):
Structures can show the parent of a compound that is named as a salt. Marks after values point to notes of the source that are not given here. Blank lines part the entries; values can stand above or below the compound they belong to.

Legend:
[1] = system: mouse; assay: Swimming test (Porsolt) in the mouse; type: in vivo
Procedure: Process: The procedure is similar to that described by Porsolt et al. (Arch. Int. Pharmacodyn. 229, p. 327–336 (1977).
Naïve (unconditioned) mice are subjected to forced swimming for 15 minutes in a glass cylinder containing 20 cm of water at a temperature of 25° C. The period of immobility from the third to the sixth minute (inclusive) and the time to reach total immobility from the sixth to the fifteenth minute were measured. Total immobility is defined as the latent time required in order for the animal to remain immobile for at least 30 seconds. The compounds were administered orally 60 minutes before the test.

[2] = molecular target: T1, NMDA receptor; assay: Binding of [3H]MK-801 to rat cortical synaptosomial membranes; conditions: H3-MK-801, 45 min at 23° C., read-out: IC50, concentration displacing 50% of the ligand (MK-801) from the receptor
T1 construct: IC50, concentration displacing 50% of the ligand (MK-801) from the receptor; other: rat cortical membranes, H3-MK-801

[3] = system: rat hippocampus slices; assay: Basal release of [3H]noradrenalin from rat hippocampus slices in perfusion; type: cell-based
Procedure: (§1) The animals were sacrificed and the brains rapidly removed from the brain case and immediately transferred at 4° C. into artificial cerebrospinal fluid (aCSF) aerated with a gas mixture composed of 95% oxygen and 5% carbon dioxide. The brains were then sectioned at a temperature of 4° C. and the encephalic areas of interest (hippocampus and corpora striata) removed and immersed in the solution mentioned above.
(§2) Cerebral slices 400 μm thick were then prepared using a McIllwain “chopper”. The hippocampus slices were incubated with 0.08 μM of [^3H] noradrenalin and the striatum slices with 0.01 μM of [^3H] dopamine and/or with 0.09 μM of [^3H] choline at a temperature of 37° C. for 20 minutes. The slices labelled with [^3H] noradrenalin were incubated in the presence of 0.1 μM 6-nitroquipazine and 0.1 μM GBR 12909, which are selective inhibitors of the uptake of serotonin and dopamine, respectively, in order to prevent possible false labelling of serotoninergic and dopaminergic synaptic endings.
(§3) For the same reasons, the slices labelled with [^3H] dopamine were incubated in the presence of 0.1 μM 6-nitroquipazine and 0.1 μM nisoxetine, which are selective inhibitors of serotonin and noradrenalin uptake. […]
(§4) At the end of the experiment, the collected samples and the perfused slices (dissolved in toluene) were subjected to counting of the radioactivity present in each fraction and/or slice using a scintillator for liquid samples. The fractional release of tritiated neurotransmitters was calculated as the amount of radioactivity present in each fraction divided by the total radioactivity present in the slice at the moment at which it was collected. The ratios between the fractional release at a given moment of the perfusion and the fractional release in the first collected fraction were thus calculated for each slice. The effects of the compounds were expressed as a percentage of increase of the release of the neurotransmitters studied relative to the control slices perfused in the absence of drugs (Table 2).

[4] = system: rat striatum slices; assay: Basal release of [3H]dopamine from rat striatum slices in perfusion; type: cell-based; conditions: inactive = at the concentration in parentheses
Procedure: as §1, §2, §3, §4

[5] = system: rat striatum slices; assay: Basal release of [3H]acetylcholine from rat striatum slices in perfusion; type: cell-based; conditions: inactive = at the concentration in parentheses
Procedure: as §1, §2, §3, §4

[6] = system: NMDA receptor; assay: Release of [3H]noradrenalin stimulated by NMDA in rat hippocampus slices; type: cell-based; conditions: aCSF lacking Mg2+, 100 μM NMDA, read-out: IC50 for antagonizing the effect of 100 μM NMDA on [3H]noradrenalin release
Procedure: The preparation of the slices is analogous to that described previously. The slices were perfused in the presence of [^3H] noradrenalin with an aCSF lacking in Mg^2+ ions. After perfusion for 45 minutes to equilibrate the system, 7 fractions of 5 minutes each were collected. The test compounds were added to the perfusion liquid 10 minutes before starting the collection of the fractions, while 100 μM NMDA was added only to fraction 4, from the fifteenth minute after the start of collection.
At the end of the experiment, the radioactivity present was counted as described previously. For each sample, the percentage ratio between the fractional release in fraction 4 in the presence of NMDA and the fractional release in the first collected fraction was determined. The activity of the test drugs was expressed as a mean percentage value of the number of experiments performed relative to the percentage increase in the release of [^3H] noradrenalin into the NMDA-stimulated control chambers in the absence of antagonists.

[7] = system: rat parieto-occipital cortex slices; assay: Release of [3H]D-aspartate evoked by 30 mM KCl under hypoglycaemic conditions in rat parieto-occipital slices; type: cell-based; conditions: read-out: IC50 for antagonizing the hypoglycaemia-induced increase in the release of [3H]D-aspartate
Procedure: This in vitro experimental model was designed to mimic a condition of […] and is a modification of the model reported by Zablocka B. and Domanska-Janik K., [NeuroReport 6, 85–88 (1994)].
Rat parieto-occipital cortex is removed and sectioned into 400 μm coronal slices. The cortical slices are incubated at 37° C. for 30 minutes with [^3H]D-aspartate and then, after washing for 45 minutes, stimulated for 5 minutes with a hypertonic potassium solution (30 mM). Once the basal conditions have been restored, the slices are perfused with a glucose-free medium for 20 minutes. The test compounds are at this point added to a standard medium containing glucose and perfused until the end of the experiment. 10 minutes from the end of the hypoglycaemic period, a further hypertonic potassium stimulation depolarizes the neuronal membrane, causing an approximately 75% increase in the release of [^3H]D-aspartate evoked under control conditions.

[8] = system: mouse; assay: "Tail pinching" test in the mouse; type: in vivo; conditions: for Immobility time: 5 minutes; for % effect vs control: immobility time; for ED50: oral, calculated ED50, read-out: ED50 (reduction of immobility time)
Procedure: Process: The procedure is similar to that described by Steru et al. [Psychopharmacol. 85, p. 367-(1985)]. The animals are suspended by the tail 75 cm above the bench surface. The duration of immobility is measured over a period of 5 minutes: the animals are considered as being immobile only when they hang passively and completely motionless. The compounds were administered orally 30 minutes before the test.

[9] = molecular target: NO-synthetase (NOS) (Oryctolagus cuniculus, UniProt G1SGE1); assay: Inhibition of NO (nitrite) formation in rabbit articular chondrocytes stimulated with IL-1β; type: cell-based; conditions: for IC50: nitrite formation, IL-1β 1 ng/ml, 48 hours, 95% confidence limits in parentheses, read-out: Rabbit articular chondrocytes % inhibition (IC50 × 10^−6M)
Chain of NO-synthetase (NOS) (G1SGE1 entry or part of it): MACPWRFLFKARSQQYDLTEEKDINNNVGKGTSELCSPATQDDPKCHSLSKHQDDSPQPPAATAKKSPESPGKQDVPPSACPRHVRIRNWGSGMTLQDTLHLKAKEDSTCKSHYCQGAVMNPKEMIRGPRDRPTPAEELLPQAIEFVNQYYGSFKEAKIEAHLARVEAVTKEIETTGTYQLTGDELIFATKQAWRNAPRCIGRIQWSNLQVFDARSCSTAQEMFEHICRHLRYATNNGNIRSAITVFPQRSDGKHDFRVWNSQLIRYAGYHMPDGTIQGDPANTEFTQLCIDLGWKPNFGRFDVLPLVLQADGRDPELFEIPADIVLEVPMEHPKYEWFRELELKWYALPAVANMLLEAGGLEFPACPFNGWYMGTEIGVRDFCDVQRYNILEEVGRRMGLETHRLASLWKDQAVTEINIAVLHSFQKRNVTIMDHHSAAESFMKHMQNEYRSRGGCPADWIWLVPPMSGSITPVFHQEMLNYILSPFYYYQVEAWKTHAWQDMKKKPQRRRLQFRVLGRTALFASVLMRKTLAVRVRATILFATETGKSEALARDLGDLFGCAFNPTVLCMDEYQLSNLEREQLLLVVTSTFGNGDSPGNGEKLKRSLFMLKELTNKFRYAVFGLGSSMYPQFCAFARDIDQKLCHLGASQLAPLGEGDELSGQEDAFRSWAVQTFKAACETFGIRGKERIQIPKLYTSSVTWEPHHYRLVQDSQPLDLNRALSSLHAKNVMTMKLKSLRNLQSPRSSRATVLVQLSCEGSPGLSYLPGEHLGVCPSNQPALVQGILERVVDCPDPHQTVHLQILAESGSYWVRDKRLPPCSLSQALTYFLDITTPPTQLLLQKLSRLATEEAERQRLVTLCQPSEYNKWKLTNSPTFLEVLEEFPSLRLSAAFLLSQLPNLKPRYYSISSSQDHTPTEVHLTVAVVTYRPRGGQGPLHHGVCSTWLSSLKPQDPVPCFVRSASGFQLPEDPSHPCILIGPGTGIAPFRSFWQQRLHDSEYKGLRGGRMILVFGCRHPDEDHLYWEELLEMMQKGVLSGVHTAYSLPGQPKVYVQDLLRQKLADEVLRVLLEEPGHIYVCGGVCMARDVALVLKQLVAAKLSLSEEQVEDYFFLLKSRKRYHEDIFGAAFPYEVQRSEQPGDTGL
Procedure: a) The inhibitory activity on the formation of NO, measured as NO2^− (nitrite), was studied in vitro on culture media of rabbit articular chondrocytes stimulated with the cytokine IL-1β (1 ng/ml) for 48 hours. For the preparation of the chondrocytes, the method described by Berenbaum et al. […] The cells were maintained under these conditions to the point of confluency (about 15 days), the medium being changed every 3 days. […] The stimulation lasted for 48 hours at 37° C. (incubation under air-7% CO2). Next, an assay of the nitrites was performed on the cell supernatant according to the method described by Green et al. [Anal. Biochem. 126, 131–138 (1982)].

[10] = 3 mg/kg orally 60 minutes before the test
[11] = 10 mg/kg orally 60 minutes before the test
[12] = 30 mg/kg orally 60 minutes before the test
[13] = 1 mg/kg orally 30 minutes before the test
[14] = 10 mg/kg orally 30 minutes before the test
[15] = 0.1 mg/kg orally 60 minutes before the test
[16] = 1 mg/kg orally 60 minutes before the test

- melting point: 243 °C
SMILES: CC(=N)NCCC12CC3CC(CC(C3)C1)C2 (as salt: HCl) [Compound 1]

- melting point: 246 °C
SMILES: N=C(N)NCCC12CC3CC(CC(C3)C1)C2 (as salt: HCl) [Compound 3]

SMILES: CN(C)CCC=C1c2ccccc2CCc2ccccc21 [Amitryptiline, reference compound]
- Immobility in sec. (3–6 mins) [1, 10]: 54.9 s
- Latent time vs immobility in sec. (6–15 mins) [1, 10]: 477.5 s
- Immobility in sec. (3–6 mins) [1, 11]: 56.0 s
- Latent time vs immobility in sec. (6–15 mins) [1, 11]: 461.0 s
- Immobility in sec. (3–6 mins) [1, 12]: 42.0 s
- Latent time vs immobility in sec. (6–15 mins) [1, 12]: 607.8** sec.

- IC50 [2]: ~40 µM
- IC50 [6]: 0.8 µM
- IC50 [7]: 2.5 µM
SMILES: CC(=N)NCCC12CC3CC(C)(CC(C)(C3)C1)C2 [Compound 2, N-[2-(3,5-dimethyl-1-adamantyl)ethyl]-acetamidine]
- Basal release of [3H]NE on hippocampus slices: concentration increasing basal release by 100% [3]: 6 µM
- Basal release of [3H]DA on striatum slices: concentration increasing basal release by 100% [4]: 2 µM
- Basal release of [3H]Ach on striatum slices: concentration increasing basal release by 100% [5]: inactive
- Immobility time ([8]; 0.3 mg/kg orally 30 minutes before the test): 56.6 s
- % effect vs control ([8]; 0.3 mg/kg orally): 25.7%
- Immobility time [8, 13]: 48.0 s
- % effect vs control ([8]; 1 mg/kg orally): 37.0%
- Immobility time ([8]; 3 mg/kg orally 30 minutes before the test): 42.6 s
- % effect vs control ([8]; 3 mg/kg orally): 44.1%
- Immobility time [8, 14]: 35.1 s
- % effect vs control ([8]; 10 mg/kg orally): 53.9%
- ED50 [8]: 6 mg/kg

- IC50 [2]: ~40 µM
- IC50 [6]: 0.5 µM
- IC50 [7]: 0.8 µM
SMILES: CC12CC3CC(C)(C1)CC(CCNC(=N)N)(C3)C2 [Compound 4, N-[2-(3,5-dimethyl-1-adamantyl)ethyl]guanidine]
- Basal release of [3H]NE on hippocampus slices: concentration increasing basal release by 100% [3]: 15 µM
- Basal release of [3H]DA on striatum slices: concentration increasing basal release by 100% [4]: 8 µM
- Basal release of [3H]Ach on striatum slices: concentration increasing basal release by 100% [5]: 20 µM
- Immobility in sec. (3–6 mins) [1, 15]: 39.3* sec.
- Latent time vs immobility in sec. (6–15 mins) [1, 15]: 353.3 s
- Immobility in sec. (3–6 mins) [1, 16]: 39.8* sec.
- Latent time vs immobility in sec. (6–15 mins) [1, 16]: 450.8* sec.
- Immobility in sec. (3–6 mins) [1, 11]: 42.4* sec.
- Latent time vs immobility in sec. (6–15 mins) [1, 11]: 495.8* sec.

- melting point: 260 °C
SMILES: N=C(NCCC12CC3CC(CC(C3)C1)C2)N[N+](=O)[O-] [Compound 5]

SMILES: CC12CC3CC(C)(C1)CC(CCNC(=N)N[N+](=O)[O-])(C3)C2 [Compound 6, N-[2-(3,5-dimethyl-1-adamantyl)ethyl]-nitroguanidine]
- IC50 [9]: 80.4 µM

- melting point: 96 °C
SMILES: CC12CC3CC(C)(C1)CC(CCNC(=N)C1CC1)(C3)C2 [Compound 7]

SMILES: COC(=O)[C@@H](N)CCCNC(=N)N[N+](=O)[O-] [L-NAME]
- IC50 [9]: 340 µM

SMILES: CC12CC3CC(C)(C1)CC(N)(C3)C2 [Memantine, reference compound]
- IC50 [2]: 80 µM
- Basal release of [3H]NE on hippocampus slices: concentration increasing basal release by 100% [3]: 130 µM
- Basal release of [3H]DA on striatum slices: concentration increasing basal release by 100% [4]: inactive (30 μM)
- Basal release of [3H]Ach on striatum slices: concentration increasing basal release by 100% [5]: inactive (100 μM)
- IC50 [6]: 1.6 µM
- IC50 [7]: 7.5 µM
- Inhibition of the production of nitrite ([9]; up to the maximum concentration tested (3×10^−4M)): entirely inactive
- Immobility time ([8]; 0.1 mg/kg orally 30 minutes before the test): 49.9 s
- % effect vs control ([8]; 0.1 mg/kg orally): 36.8%
- Immobility time [8, 13]: 48.9 s
- % effect vs control ([8]; 1 mg/kg orally): 38.0%
- Immobility time [8, 14]: 40.1 s
- % effect vs control ([8]; 10 mg/kg orally): 49.2%
- ED50 [8]: 24.9 mg/kg
